From patent publication US20250145633A1, “SUBSTITUTED FURANOPYRIMIDINE COMPOUNDS AS PDE1 INHIBITORS” (Dart NeuroScience, LLC, priority 2017, published 2025) come the findings set out here.

The target of the assay is human PDE1B enzyme (Homo sapiens (Human), UniProt Q01064). As to the kind of experiment: IMAP TR-FRET PDE1B enzymatic assay. The format is biochemical. The conditions noted are these: negative log of half-maximal molar inhibitory concentration, 200 nM FAM-cAMP, values given as bins; for IC50: read-out: PDE1b (pIC50) (converted). In outline: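 Full-length GST-tagged human PDE1B (250 pg/well) in IMAP BSA buffer with 10 U/ml calmodulin and 2.5 mM CaCl2; compound pre-incubated 5 min at room temperature, then 200 nM (final) FAM-cAMP for 30 min. IMAP binding reagent/Tb added, 1 h; TR-FRET 520/490 ratio read. IC50 from sigmoidal dose-response fit.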
A general note: Time-resolved FRET reads energy transfer from a long-lived donor to a nearby acceptor.

Some results are limits rather than exact numbers.

Take `Cc1nccc(N2CCC(NC(=O)c3c(C)oc4ncnc(NC5(C)CC5)c34)CC2)n1` [Example 670, 6-Methyl-4-[(1-methylcyclopropyl)amino]-N-[1-(2-methylpyrimidin-4-yl)piperidin-4-yl]furo[2,3-d]pyrimidine-5-carboxamide]: the IC50 is 100 to 1000 nM.
For `Cc1cc(N2CCC(NC(=O)c3c(C)oc4ncnc(NC5(C)CC5)c34)CC2)ncn1` [Example 671, 6-Methyl-4-[(1-methylcyclopropyl)amino]-N-[1-(6-methylpyrimidin-4-yl)piperidin-4-yl]furo[2,3-d]pyrimidine-5-carboxamide], the IC50 is 100 to 1000 nM.
Same read-out and setting: the result for `Cc1cc(N2CCC(NC(=O)c3c(C)oc4ncnc(NC5(C)CC5)c34)CC2)nc(C)n1` [Example 672, N-[1-(2,6-Dimethylpyrimidin-4-yl)piperidin-4-yl]-6-methyl-4-[(1-methylcyclopropyl)amino]furo[2,3-d]pyrimidine-5-carboxamide] reads 100 to 1000 nM.
Same read-out and setting: the result for `Cc1ncc(CNC(=O)c2c(C)oc3ncnc(NC4(C)CC4)c23)c(=O)[nH]1` [Example 673, 6-Methyl-N-[(2-methyl-6-oxo-1,6-dihydropyrimidin-5-yl)methyl]-4-[(1-methylcyclopropyl)amino]furo[2,3-d]pyrimidine-5-carboxamide] reads 10 to 100 nM; that for `Cc1oc2ncnc(NC3(C)CC3)c2c1C(=O)NCc1ccnc(-n2ccnc2)c1` [Example 674, N-{[2-(1H-Imidazol-1-yl)pyridin-4-yl]methyl}-6-methyl-4-[(1-methylcyclopropyl)amino]furo[2,3-d]pyrimidine-5-carboxamide], 10 to 100 nM.
In the case of `Cc1oc2ncnc(NC3(C)CC3)c2c1C(=O)NCc1ccnc(N2CCOCC2)c1` [Example 675, 6-Methyl-4-[(1-methylcyclopropyl)amino]-N-{[2-(morpholin-4-yl)pyridin-4-yl]methyl}furo[2,3-d]pyrimidine-5-carboxamide], the IC50 was 10 to 100 nM.
Turning to `COc1nc(C)ncc1CNC(=O)c1c(C)oc2ncnc(NC3(C)CC3)c12` [Example 676, N-[(4-Methoxy-2-methylpyrimidin-5-yl)methyl]-6-methyl-4-[(1-methylcyclopropyl)amino]furo[2,3-d]pyrimidine-5-carboxamide], the IC50 was 10 to 100 nM.
Still for that read-out and setting: the result for `Cc1oc2ncnc(NC3(C)CC3)c2c1C(=O)NCc1ccnc(Cl)n1` [Example 677, N-[(2-Chloropyrimidin-4-yl)methyl]-6-methyl-4-[(1-methylcyclopropyl)amino]furo[2,3-d]pyrimidine-5-carboxamide] reads 10 to 100 nM; that for `COc1ccc(CNC(=O)c2c(C)oc3ncnc(NC4(C)CC4)c23)nc1F` [Example 678, N-[(6-Fluoro-5-methoxypyridin-2-yl)methyl]-6-methyl-4-[(1-methylcyclopropyl)amino]furo[2,3-d]pyrimidine-5-carboxamide], 10 to 100 nM; that for `Cc1ncc(CNC(=O)c2c(C)oc3ncnc(NC4(C)CC4)c23)cn1` [Example 679, 6-Methyl-4-[(1-methylcyclopropyl)amino]-N-[(2-methylpyrimidin-5-yl)methyl]furo[2,3-d]pyrimidine-5-carboxamide], 10 to 100 nM.
Still for that read-out and setting: the result for `Cc1oc2ncnc(NC3(C)CC3)c2c1C(=O)NCc1nccc(C(F)(F)F)n1` [Example 680, 6-Methyl-4-[(1-methylcyclopropyl)amino]-N-{[4-(trifluoromethyl)pyrimidin-2-yl]methyl}furo[2,3-d]pyrimidine-5-carboxamide] reads 10 to 100 nM.
In the case of `Cc1oc2ncnc(NC3(C)CC3)c2c1C(=O)N1Cc2nc(C3CC3)[nH]c(=O)c2C1` [Example 681, 2-Cyclopropyl-6-{6-methyl-4-[(1-methylcyclopropyl)amino]furo[2,3-d]pyrimidine-5-carbonyl}-3H,4H,5H,6H,7H-pyrrolo[3,4-d]pyrimidin-4-one], the IC50 is 100 to 1000 nM.
For `Cc1oc2ncnc(NC3(C)CC3)c2c1C(=O)N1Cc2nc(C(C)C)[nH]c(=O)c2C1` [Example 682, 6-{6-Methyl-4-[(1-methylcyclopropyl)amino]furo[2,3-d]pyrimidine-5-carbonyl}-2-(propan-2-yl)-3H,4H,5H,6H,7H-pyrrolo[3,4-d]pyrimidin-4-one], the IC50 is 100 to 1000 nM.
The same measure, in the same setting: the result for `Cc1oc2ncnc(NC3(C)CC3)c2c1C(=O)N1CCn2nccc2C1` [Example 683, 6-Methyl-N-(1-methylcyclopropyl)-5-{4H,5H,6H,7H-pyrazolo[1,5-a]pyrazine-5-carbonyl}furo[2,3-d]pyrimidin-4-amine] reads 10 to 100 nM; that for `Cc1oc2ncnc(NC3(C)CC3)c2c1C(=O)N1CCn2c(cnc2C2CC2)C1` [Example 684, 5-{3-Cyclopropyl-5H,6H,7H,8H-imidazo[1,5-a]pyrazine-7-carbonyl}-6-methyl-N-(1-methylcyclopropyl)furo[2,3-d]pyrimidin-4-amine], 100 to 1000 nM; that for `COc1cc(CN(C)C(=O)c2c(C)oc3ncnc(NC4(C)CC4)c23)ncn1` [Example 685, N-[(6-Methoxypyrimidin-4-yl)methyl]-N,6-dimethyl-4-[(1-methylcyclopropyl)amino]furo[2,3-d]pyrimidine-5-carboxamide], 100 to 1000 nM.
In the case of `Cc1oc2ncnc(NC3(C)CC3)c2c1C(=O)NCc1cc(C2CC2)ncn1` [Example 686, N-[(6-Cyclopropylpyrimidin-4-yl)methyl]-6-methyl-4-[(1-methylcyclopropyl)amino]furo[2,3-d]pyrimidine-5-carboxamide], the “PDE1b (pIC50)” value is listed as over 8.
As to `COc1nc(C2CC2)nc2c1CN(C(=O)c1c(C)oc3ncnc(NC4(C)CC4)c13)C2` [Example 687, 5-{2-Cyclopropyl-4-methoxy-5H,6H,7H-pyrrolo[3,4-d]pyrimidine-6-carbonyl}-6-methyl-N-(1-methylcyclopropyl)furo[2,3-d]pyrimidin-4-amine], the IC50 is 10 to 100 nM.
Still for that read-out and setting: the result for `COc1nc(C(C)C)nc2c1CN(C(=O)c1c(C)oc3ncnc(NC4(C)CC4)c13)C2` [Example 688, 5-[4-Methoxy-2-(propan-2-yl)-5H,6H,7H-pyrrolo[3,4-d]pyrimidine-6-carbonyl]-6-methyl-N-(1-methylcyclopropyl)furo[2,3-d]pyrimidin-4-amine] reads 10 to 100 nM.
The same measure, in the same setting: the result for `Cc1oc2ncnc(NC3(C)CC3)c2c1C(=O)NCc1ccnc(C2CC2)n1` [Example 689, N-[(2-Cyclopropylpyrimidin-4-yl)methyl]-6-methyl-4-[(1-methylcyclopropyl)amino]furo[2,3-d]pyrimidine-5-carboxamide] reads 10 to 100 nM.
The same measure, in the same setting: the result for `Cc1oc2ncnc(NC3(C)CC3)c2c1C(=O)N1CCc2cnc(Cl)nc2C1` [Example 690, 5-{2-Chloro-5H,6H,7H,8H-pyrido[3,4-d]pyrimidine-7-carbonyl}-6-methyl-N-(1-methylcyclopropyl)furo[2,3-d]pyrimidin-4-amine] reads 10 to 100 nM; that for `Cc1oc2ncnc(NC3(C)CC3)c2c1C(=O)NCc1ncc(C(C)(C)C)o1` [Example 691, N-[(5-tert-Butyl-1,3-oxazol-2-yl)methyl]-6-methyl-4-[(1-methylcyclopropyl)amino]furo[2,3-d]pyrimidine-5-carboxamide], 10 to 100 nM.
Turning to `Cc1oc2ncnc(NC3(C)CC3)c2c1C(=O)N(C)Cc1ncco1` [Example 692, N,6-Dimethyl-4-[(1-methylcyclopropyl)amino]-N-(1,3-oxazol-2-ylmethyl)furo[2,3-d]pyrimidine-5-carboxamide], the IC50 is 100 to 1000 nM.
Still for that read-out and setting: the result for `Cc1oc2ncnc(NC3(C)CC3)c2c1C(=O)NCCc1cnc(C2CC2)nc1` [Example 693, N-[2-(2-Cyclopropylpyrimidin-5-yl)ethyl]-6-methyl-4-[(1-methylcyclopropyl)amino]furo[2,3-d]pyrimidine-5-carboxamide] reads 100 to 1000 nM; that for `Cc1oc2ncnc(NC3(C)CC3)c2c1C(=O)N1CCn2c(C3CC3)nc(Cl)c2C1` [Example 694, 5-{1-Chloro-3-cyclopropyl-5H,6H,7H,8H-imidazo[1,5-a]pyrazine-7-carbonyl}-6-methyl-N-(1-methylcyclopropyl)furo[2,3-d]pyrimidin-4-amine], 10 to 100 nM; that for `Cc1oc2ncnc(NC3(C)CC3)c2c1C(=O)N1CCn2c(C3CC3)nc(I)c2C1` [Example 695, 5-{3-Cyclopropyl-1-iodo-5H,6H,7H,8H-imidazo[1,5-a]pyrazine-7-carbonyl}-6-methyl-N-(1-methylcyclopropyl)furo[2,3-d]pyrimidin-4-amine], 10 to 100 nM.
Still for that read-out and setting: the result for `Cc1oc2ncnc(NC3(C)CC3)c2c1C(=O)NCc1ncc(C(F)(F)F)cn1` [Example 696, 6-Methyl-4-[(1-methylcyclopropyl)amino]-N-{[5-(trifluoromethyl)pyrimidin-2-yl]methyl}furo[2,3-d]pyrimidine-5-carboxamide] reads 10 to 100 nM.
The same measure, in the same setting: the result for `Cc1cccc(CNC(=O)c2c(C)oc3ncnc(NC4(C)CC4)c23)n1` [Example 697, 6-Methyl-4-[(1-methylcyclopropyl)amino]-N-[(6-methylpyridin-2-yl)methyl]furo[2,3-d]pyrimidine-5-carboxamide] reads 10 to 100 nM.
For the molecule `COc1ncc(CNC(=O)c2c(C)oc3ncnc(NC4(C)CC4)c23)cn1` [Example 698, N-[(2-Methoxypyrimidin-5-yl)methyl]-6-methyl-4-[(1-methylcyclopropyl)amino]furo[2,3-d]pyrimidine-5-carboxamide], the “PDE1b (pIC50)” value is on record as over 8.
Consider `COc1ncc2c(n1)CN(C(=O)c1c(C)oc3ncnc(NC4(C)CC4)c13)CC2` [Example 699, 5-{2-Methoxy-5H,6H,7H,8H-pyrido[3,4-d]pyrimidine-7-carbonyl}-6-methyl-N-(1-methylcyclopropyl)furo[2,3-d]pyrimidin-4-amine], for which the IC50 was 100 to 1000 nM.
Take `Cc1csc(CN(C)C(=O)c2c(C)oc3ncnc(NC4(C)CC4)c23)n1` [Example 700, N,6-Dimethyl-N-[(4-methyl-1,3-thiazol-2-yl)methyl]-4-[(1-methylcyclopropyl)amino]furo[2,3-d]pyrimidine-5-carboxamide]: the IC50 is 10 to 100 nM.
